In brackets after ≈: the same amount, converted by molar mass. Where two headings read alike, the source gives them in different places.
Assays:
[1] = tested on: Mycobacterium smegmatis ATCC 607; assay: Minimum inhibiting concentration, M. smegmatis ATCC 607; type: cell-based; conditions: M. smegm. ATCC 607; for MIC: Mycolicibacterium smegmatis, ATCC607, read-out: Minimum inhibiting concentration
[2] = tested on: Mycobacterium avium Patient Strain (Birk); assay: Minimum inhibiting concentration, M. avium Patient Strain (Birk); type: cell-based; conditions: M. avium Patient str.; for MIC: Mycobacterium avium, read-out: Minimum inhibiting concentration
[3] = tested on: Mycobacterium tuberculosis H 37 RV; assay: Minimum inhibiting concentration, M. tuberculosis H37RV; type: cell-based; conditions: M. tub. H37RV; for MIC: Mycobacterium tuberculosis
Protocol: The minimum inhibiting concentration of the commercially available and inventive substances given in Table 2 was determined according to the known standard process ("Methods for sensitivity testing of bacterial infectious germs", DIN 58940, part 5).
The determination was carried out on the following bacterial cultures:
2. Mycobacterium tuberculosis H 37 RV, FIB 2-85 JS
For culturing the bacterial cultures use was made of nutrient substrates according to Gottsacker and Lowenstein Jensen and culture media according to Lockemann or Dubos-Davis (cf. "Detection processes for mycobacteria from test material, III, culture medium formulations for culturing tuberculosis bacteria", 1978, Publisher: Deutsches Zentralkomitee zur Bekampfung der Tuberculose, Poppenhusenstrasse 14c, 2000 Hamburg 60).
In each case 5×10^-3 to 5×10^-5 mg, based on the wet weight, of the mycobacterial strains were incubated in 2 ml of culture fluid (Lockemann +0.5 wt/vol. % bovine serum albumen fraction 5) at 31° C. with a graded concentration of the particular inhibitor (dilution series). The culture tubes were read off after 8 to 15 days, as a function of the bacterial strain.
The MIC is the inhibitor concentration in μMol/l at which no propagation of the sewn cells is observed.

Mycobacterium lufu = assay: Minimum inhibiting concentration, M. lufu L 209; type: cell-based; conditions: for MIC: Mycobacterium lufu
lymphatic leukaemia P388 = conditions: C. Pellerano et al, Il Farmaco 1985; cited from earlier work
[4] = tested on: Mycobacterium avium SN 304; assay: Minimum inhibiting concentration, M. avium SN 304; type: cell-based; conditions: SN304, M. avium SN 304, read-out: Minimum inhibiting concentration
[5] = tested on: Indochina W-2 (parasitic malaria strain); assay: Growth of malaria strain Indochina W-2; type: cell-based; conditions: for IC90: read-out: I90
Text: (§1) Determination of the semimaximum inhibiting concentration (I50) of typical representatives of the inventive compounds for the growth of parasitic malaria strains:
(§2) The determination took place according to the standard process (cf. WHO determination process).
(§3) The process according to Example 35 was repeated with the difference that the semimaximum inhibiting concentration of combinations of the inventive compound PH 22 with (2), (3) inhibitors of dihydrofolic acid reductase, (4) inhibitors of folate synthase and dihydrofolic acid reductase and (5), (6) inhibitors of DNA-synthesis were determined.

[6] = tested on: human mammary tumour cell line MDA-MB231; assay: Inhibition of thymidine incorporation into DNA; type: cell-based; conditions: MDA-MB-231, read-out: 50% Inhibition of thymidine incorporation
Protocol: (§4) The semimaximum inhibition of cellnumber increase and thymidine incorporation into DNA was determined on the […], human mammary tumour cell line MDA-MB231 (cf. H. D. Soule et al, J. Nat. Cancer Inst., 51, p.1409, 1973) according to the method described by H. Seidenberger, G. Kranzfelder, S. Wappes, H. Schonenberger, W. Beck and M. Girth, Arch. Pharm. 314, 955, 1981 and M. Lippman, M. E. Monaco and G. Bolan, Cancer Res. 37, 1901, 1977.

[7] = tested on: Mycobacterium marinum SN 1254; assay: Minimum inhibiting concentration, M. marinum SN1254; type: cell-based; conditions: M. marin. SN1254, read-out: Minimum inhibiting concentration
[8] = tested on: human mammary tumour cell line MDA-MB231; assay: Inhibition of cellnumber increase; type: cell-based; conditions: MDA-MB-231, read-out: 50% Inhibition of cellnumber increase, I50
Protocol: as §4

[9] = tested on: Sierra Leone D-6 (parasitic malaria strain); assay: Growth of malaria strain Sierra Leone D-6; type: cell-based; conditions: for IC90: read-out: I90
Text: as §1, §2, §3

in vivo = conditions: rat, sc
Protocol: The acute toxicity after a single administration of PH 22, pyridine-2-aldehyde-thiosemicarbazone (Py-2-TSC), as well as Conteben (thiacetazone, 4-acetylaminobenzaldehyde-thiosemicarbazone) was determined according to H. J. Hapke, Toxikologie fur Veterinarmediziner, F. Enke Verlag, Stuttgart 1975. The test animals used were Wistar rats and NMRI white mice.

M. leprae [10] = assay: Propagation of M. leprae in mouse paws; type: in vivo; conditions: two months in feed; DDS 0.0001%, Rifampicin 0.001%, K-130 0.01%, Brodimoprim 0.01%, PH 22-26 0.05%
Protocol: The therapeutic action was determined as a reduction of the number of acid-resistant bacteria in the mouse paw according to C. C. Shepard, J. Experim. Met., 112, p. 445, 1960.
It is possible to detect the synergistic effect of the combinations, even under in vivo conditions.

M. leprae [11] = assay: In vitro propagation of M. leprae, thymidine incorporation; type: cell-based; conditions: Mycobacterium leprae, read-out: % Reduction Thymidine incorporation
Protocol: The inhibiting action was determined as a reaction of the thymidine absorption and the ATP content in M. Leprae suspensions, in the manner described by A. M. Dhople, Med. Sci. Res., 15, p.

[12] = Mouse, cited from earlier work
[13] = read-out: IC50 in the case of combinations

| SMILES | MIC [4] | IC50 ([5]; read-out: I50) | IC90 [5] | MIC [1] | MIC [3] | MIC (Mycobacterium lufu) | IC50 [6] | MIC [7] | IC50 [8] | IC50 ([9]; read-out: I50) | IC90 [9] | MIC [2] | also measured |
| --- | --- | --- | --- | --- | --- | --- | --- | --- | --- | --- | --- | --- | --- |
| CC(=NN(c1ccccn1)c1ccc2ccccc2n1)c1ccccn1 [PH 22-4, 2-acetylpyridine-2'-pyridyl-2'-quinolylhydrazone] |  |  |  |  |  |  |  |  |  |  |  |  | Minimum inhibiting concentration [1]: 15 μM/1; Minimum inhibiting concentration [2]: 58 μM/1; Minimum inhibiting concentration [3]: 4,8 μM/1; Minimum inhibiting concentration (Mycobacterium lufu): 6,7 μM/1; in vivo treatment of lymphatic leukaemia P388 (lymphatic leukaemia P388): ineffective |
| [H]/N=C(/N)N[C@H]1[C@H](O)[C@@H](O)[C@H](O[C@@H]2O[C@@H](C)[C@](O)(C=O)[C@H]2O[C@@H]2O[C@@H](CO)[C@H](O)[C@@H](O)[C@@H]2NC)[C@@H](N/C(N)=N\[H])[C@@H]1O [Streptomycin] | 55 µM (≈ 32 µg/mL) |  |  |  |  |  |  |  |  |  |  |  |  |
| C(=NNc1ccc2ccccc2n1)c1ccccn1 [PQ 22, pyridine-2-aldehyde-2'-quinolylhydrazone] | 24 µM (≈ 5.96 µg/mL) | 1.1 µM | 1.7 µM | 21 µM (≈ 5.21 µg/mL) | 28 µM (≈ 6.95 µg/mL) | 10 µM (≈ 2.48 µg/mL) | 0.157 µM | 12 µM (≈ 2.98 µg/mL) | 0.321 µM | 1.5 µM | 2 µM |  |  |
| C(=NNc1ccccn1)c1ccccn1 [PH 22, pyridine-2-aldehyde-2'-pyridylhydrazone] | 30 µM (≈ 5.95 µg/mL) | 2 µM | 2.5 µM | 20 µM (≈ 3.96 µg/mL) | 97 µM (≈ 19.2 µg/mL) | 32 µM (≈ 6.34 µg/mL) | 0.118 µM | 77 µM (≈ 15.3 µg/mL) | 0.151 µM | 0.3 µM | 1.3 µM | 29 µM (≈ 5.75 µg/mL) | IC50 [5, 13]: 0.39 µg/mL; LD50 (in vivo): > 2000 mg/kg; IC50 [9, 13]: 0.0556 µg/mL |
| NC(=NNc1ccccn1)c1ccccn1 [PH 22-12, pyridine-2-carboxylic acid 2'-pyridyl-amidrazone] |  | 6.3 µM | 41 µM |  |  |  | 0.33 µM |  | 0.46 µM | 1.5 µM | 4.3 µM |  |  |
| CCC(=NNc1nncc2ccccc12)c1ccccn1 [PH 22-25, ethyl-2-pyridylketone-1'-phthalazinylhydrazine] |  | 0.4 µM | 0.7 µM | 10.8 µM (≈ 3 µg/mL) | 36 µM (≈ 9.98 µg/mL) | 2.7 µM (≈ 0.749 µg/mL) | 0.104 µM | 101 µM (≈ 28 µg/mL) | 0.194 µM | 0.3 µM | 0.45 µM |  |  |
| CO[C@H]1/C=C/O[C@@]2(C)Oc3c(C)c(O)c4c(O)c(c(/C=N/N5CCN(C)CC5)c(O)c4c3C2=O)NC(=O)/C(C)=C\C=C\[C@H](C)[C@H](O)[C@@H](C)[C@@H](O)[C@@H](C)[C@H](OC(C)=O)[C@@H]1C [Rifampicin] | 39 µM (≈ 32.1 µg/mL) |  |  |  |  |  |  |  |  |  |  | 5 µM (≈ 4.11 µg/mL) | % Inhibition of propagation of M. leprae in mouse paws (M. leprae [10]): 19%; inhibition of growth at 50000 µg/mL (M. leprae [11]; 50 mg/ml): 2%; inhibition of growth at 100000 µg/mL (M. leprae [11]; 100 mg/ml): 0% |
| CC(=O)Nc1ccc(C=NNC(N)=S)cc1 [Conteben, 4-acetylaminobenzaldehyde-thiosemicarbazone, reference compound] |  |  |  |  | 4 µM (≈ 0.945 µg/mL) | 339 µM (≈ 80.1 µg/mL) |  |  |  |  |  | 35 µM (≈ 8.27 µg/mL) | LD50 ([12]; p.o., Comptes Rendus Soc. Biol. 1310 (1950)): 950 mg/kg body weight; LD50 ([12]; subc., J. Pharm. Pharmacol. 2, 764 (1950)): 1000-2000 mg/kg body weight |
